Earlier results, collected in publication PMC2918392 (Journal of medicinal chemistry, 2010).

Assays:
µ-opioid receptor [1] = system: µ-opioid receptor
µ-opioid receptor [2] = conditions: see also ref 1
[3] = system: µ opioid receptors (guinea pig ileum); conditions: read-out: Functional Bioactivity GPI (IC50), ± S.E.M.

Tyr-Pro-Trp-Phe-NH2 [EM-1]
affinity and selectivity of activation of µ-opioid receptors, in words (µ-opioid receptor [1]): high affinity and selectivity

Tyr-Pro-Phe-(2S,3S)-β-MePhe-NH2
activity among EM analogues containing β-MePhe stereoisomers, in words (µ-opioid receptor [1]): highest activity

Tyr-Pro-Phe-Phe-NH2 [EM-2]
affinity and selectivity of activation of µ-opioid receptors, in words (µ-opioid receptor [1]): high affinity and selectivity
µ-opioid receptor selectivity, in words (µ-opioid receptor [2]): c Data from reference 16. Binding affinity based on competition against [^3H]naloxone in rat brain membranes. Data were not presented on the affinity of EM2 at the δ-opioid receptor in that preparation, as EM was shown to be highly selective for µ-opioid receptors (see also reference 1).
IC50 [3]: 15 ± 2 nM

Tyr-Pro-Phe-Phe-OH
µ-opioid receptor agonist activity, in words (µ-opioid receptor [1]; C-terminal free acid): completely devoid of µ-opioid receptor agonist activity
